A word on the Kd: it is the constant that tells how readily two partners part at equilibrium. A higher Kd goes with a looser complex.

These results are taken from patent US12545708B2, “Peptide for treatment of corona virus infection disease COVID-19 and use thereof” (DAEGU GYEONGBUK INSTITUTE OF SCIENCE AND TECHNOLOGY, priority 2020, dated 2026).

The target in one series is RBD (Severe acute respiratory syndrome coronavirus 2, UniProt P0DTC2). As to the kind of experiment: biochemical. The class given is binding, SARS-CoV2.

At RBD, `CC[C@H](C)[C@H](NC(=O)[C@H](CC(N)=O)NC(=O)[C@@H](NC(=O)[C@H](CC(N)=O)NC(=O)[C@H](Cc1ccc(O)cc1)NC(=O)[C@@H](NC(=O)[C@H](CC(N)=O)NC(=O)[C@H](CC(=O)O)NC(=O)[C@H](C)NC(=O)[C@H](CC(C)C)NC(=O)[C@H](CCC(N)=O)NC(=O)[C@H](CO)NC(=O)[C@H](CCCCN)NC(=O)[C@@H](N)CCSC)C(C)C)[C@@H](C)O)C(=O)N[C@H](C(=O)N[C@@H](CCCCN)C(=O)N[C@@H](CCC(=O)O)C(=O)N[C@@H](CC(N)=O)C(=O)N[C@H](C(=O)N[C@@H](CCC(N)=O)C(=O)N[C@@H](CC(N)=O)C(=O)N[C@@H](CCSC)C(=O)N[C@@H](CC(N)=O)C(=O)N[C@@H](CCC(=O)O)C(=O)N[C@@H](CCC(=O)O)C(=O)N[C@@H](CCC(N)=O)C(=O)N[C@@H](C)C(=O)N[C@@H](CCCCN)C(=O)N[C@H](C(=O)N[C@@H](Cc1ccccc1)C(=O)N[C@@H](CC(C)C)C(=O)N[C@@H](CC(=O)O)C(=O)N[C@@H](CCCCN)C(=O)N[C@@H](Cc1ccccc1)C(=O)N[C@@H](CC(N)=O)C(=O)N[C@@H](Cc1c[nH]cn1)C(=O)N[C@@H](CCC(=O)O)C(=O)N[C@@H](C)C(=O)N[C@@H](CCC(=O)O)C(=O)N[C@@H](CC(=O)O)C(=O)N[C@@H](CC(C)C)C(=O)N[C@@H](Cc1ccccc1)C(=O)N[C@@H](Cc1ccc(O)cc1)C(=O)N[C@@H](CCC(N)=O)C(=O)N[C@@H](CO)C(=O)N[C@@H](CO)C(=O)NCC(=O)N[C@@H](CC(C)C)C(=O)NCC(=O)N[C@@H](CCCCN)C(=O)NCC(=O)N[C@@H](CC(=O)O)C(=O)N[C@@H](Cc1ccccc1)C(=O)N[C@@H](CCCNC(=N)N)C(=O)O)[C@@H](C)O)C(C)C)[C@@H](C)O` [PEP9] registered a Kd of 0.0345 µM. Further, the “change in cell viability” value in the series on HEK293T cell line, in the series with HepG2 cell line, in the series with HMC-3 cell line and in the series on MRC-5 cell line was “no significant change” each time. The “decrease in the cell viability” value with HMC-3 cell line is “about 10%”.
